Assay results reported in ChEMBL document CHEMBL4311944, “Discovery of 3-Oxabicyclo[4.1.0]heptane, a Non-nitrogen Containing Morpholine Isostere, and Its Application in Novel Inhibitors of the PI3K-AKT-mTOR Pathway” (J Med Chem, 2019).
In brackets after ≈: the same amount, converted by molar mass.

What was measured:
[1] = Kinetic solubility of the compound in pH 7.4 phosphate buffered saline measured after 1 hr; type: physicochemical; details: read-out: Kinetic_solubility
[2] = Lipophilicity, logP of the compound by reversed phase column chromatography; type: physicochemical
[3] = molecular target: T1, Phosphatidylinositol 4,5-bisphosphate 3-kinase catalytic subunit delta isoform (Homo sapiens, UniProt O00329); assay: Inhibition of PI3Kdelta (unknown origin) using PIP2 as substrate preincubated for 15 mins followed by substrate addition and measured after 1 hr by HTRF assay
T1 sequence (O00329 whole entry): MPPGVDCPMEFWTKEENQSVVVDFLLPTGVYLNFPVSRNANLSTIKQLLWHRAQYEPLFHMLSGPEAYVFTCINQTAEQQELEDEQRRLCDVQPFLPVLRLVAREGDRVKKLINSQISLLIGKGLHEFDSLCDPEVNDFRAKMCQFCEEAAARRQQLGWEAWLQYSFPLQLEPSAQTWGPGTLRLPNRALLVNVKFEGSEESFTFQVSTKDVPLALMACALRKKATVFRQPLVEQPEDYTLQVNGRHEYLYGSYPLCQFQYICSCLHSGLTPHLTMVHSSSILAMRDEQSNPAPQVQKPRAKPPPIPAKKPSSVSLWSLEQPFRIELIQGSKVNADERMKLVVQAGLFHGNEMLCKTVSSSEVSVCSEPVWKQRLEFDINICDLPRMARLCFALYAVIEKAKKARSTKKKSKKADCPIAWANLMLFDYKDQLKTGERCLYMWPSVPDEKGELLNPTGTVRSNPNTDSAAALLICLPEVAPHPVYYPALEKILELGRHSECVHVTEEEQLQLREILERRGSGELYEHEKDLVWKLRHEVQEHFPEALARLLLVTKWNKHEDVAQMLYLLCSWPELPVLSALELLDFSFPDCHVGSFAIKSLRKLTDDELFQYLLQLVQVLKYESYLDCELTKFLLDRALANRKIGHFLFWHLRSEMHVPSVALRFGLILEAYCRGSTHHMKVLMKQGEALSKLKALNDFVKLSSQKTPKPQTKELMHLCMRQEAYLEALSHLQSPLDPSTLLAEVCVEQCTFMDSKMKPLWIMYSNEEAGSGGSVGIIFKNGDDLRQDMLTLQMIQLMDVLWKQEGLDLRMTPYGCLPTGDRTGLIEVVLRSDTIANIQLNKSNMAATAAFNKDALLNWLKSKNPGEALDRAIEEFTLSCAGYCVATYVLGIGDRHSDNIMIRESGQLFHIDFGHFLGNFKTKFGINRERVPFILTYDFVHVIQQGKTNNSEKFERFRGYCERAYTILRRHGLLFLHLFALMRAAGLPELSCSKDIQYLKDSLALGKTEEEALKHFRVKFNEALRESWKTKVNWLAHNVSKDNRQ

[4] = Inhibition of PI3K/AKT/mTOR in human lung fibroblasts assessed as reduction in AKT phosphorylation at serine473 residue preincubated for 1 hr followed by PDGF-BB stimulation and measured after 10 mins by electrochemiluminescence method
[5] = molecular target: Phosphatidylinositol 4,5-bisphosphate 3-kinase catalytic subunit alpha isoform (Homo sapiens, UniProt P42336)
Sequence of Phosphatidylinositol 4,5-bisphosphate 3-kinase catalytic subunit alpha isoform (P42336 whole entry, canonical isoform): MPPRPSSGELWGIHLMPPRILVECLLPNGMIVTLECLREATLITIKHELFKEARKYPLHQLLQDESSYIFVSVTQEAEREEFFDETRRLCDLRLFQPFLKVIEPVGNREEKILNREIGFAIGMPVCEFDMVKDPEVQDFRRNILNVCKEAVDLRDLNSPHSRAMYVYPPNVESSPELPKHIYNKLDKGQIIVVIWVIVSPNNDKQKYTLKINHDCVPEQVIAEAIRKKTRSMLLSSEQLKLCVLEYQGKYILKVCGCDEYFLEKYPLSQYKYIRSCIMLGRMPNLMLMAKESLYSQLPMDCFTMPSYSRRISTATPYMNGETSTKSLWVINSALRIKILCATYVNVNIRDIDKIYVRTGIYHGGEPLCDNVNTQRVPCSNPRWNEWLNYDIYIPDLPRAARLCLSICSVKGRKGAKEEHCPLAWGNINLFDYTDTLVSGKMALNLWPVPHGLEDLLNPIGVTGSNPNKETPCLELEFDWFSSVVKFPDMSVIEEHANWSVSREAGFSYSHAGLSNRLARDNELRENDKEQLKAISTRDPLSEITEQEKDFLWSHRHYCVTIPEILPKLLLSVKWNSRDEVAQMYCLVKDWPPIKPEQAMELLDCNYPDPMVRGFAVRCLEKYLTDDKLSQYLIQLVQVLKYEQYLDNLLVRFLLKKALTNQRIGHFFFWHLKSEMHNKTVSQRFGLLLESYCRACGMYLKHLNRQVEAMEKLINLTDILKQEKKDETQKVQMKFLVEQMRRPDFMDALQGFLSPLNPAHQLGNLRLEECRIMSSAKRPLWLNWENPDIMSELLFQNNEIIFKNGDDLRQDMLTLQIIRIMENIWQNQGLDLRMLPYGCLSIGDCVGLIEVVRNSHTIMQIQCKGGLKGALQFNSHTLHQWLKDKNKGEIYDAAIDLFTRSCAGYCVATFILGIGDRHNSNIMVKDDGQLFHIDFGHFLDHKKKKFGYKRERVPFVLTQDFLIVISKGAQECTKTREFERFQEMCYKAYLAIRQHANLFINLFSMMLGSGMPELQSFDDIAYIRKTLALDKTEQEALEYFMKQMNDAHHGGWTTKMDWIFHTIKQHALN
Description: Inhibition of PI3Kalpha (unknown origin) using PIP2 as substrate preincubated for 15 mins followed by substrate addition and measured after 1 hr by HTRF assay

[6] = Inhibition of ligand binding to mTORC1/mTORC2 in human HuT78 cells after 2 hrs by kinobead competition binding assay; type: cell-based

Row | Structure (SMILES) | solubility kinetic at 1 h [1] | logP [2] | IC50 [3] | IC50 [4] | IC50 [5] | pIC50 [6]
1 | CCNC(=O)Nc1ccc(-c2nc(CS(C)(=O)=O)cc(N3CCOC[C@@H]3C)n2)cc1 | 212 µg/mL (≈ 489 µM) | 3.2 | 20 µM | 0.316 µM | 15.8 µM | 7.1
2 | CCNC(=O)Nc1ccc(-c2nc(CS(C)(=O)=O)cc(N3CCOCC3)n2)cc1 |  | 2.7 |  | 1.26 µM |  | 7.3
3 | CNCC(=O)Nc1ccc(-c2nc(N3CCOC[C@@H]3C)cc(C(C)(C)S(C)(=O)=O)n2)cc1 | 198 µg/mL (≈ 429 µM) | 4.1 | 1.58 µM | 0.0501 µM | 15.8 µM | 8
4 | C[C@H]1COCCN1c1cc(CS(C)(=O)=O)nc(-c2cccc(O)c2)n1 | 113 µg/mL (≈ 311 µM) | 3.3 | 1 µM | 2.51 µM | 1 µM | 6.7
5 | CNCC(=O)Nc1ccc(-c2nc(C(C)(C)S(C)(=O)=O)cc([C@@]34CCOC[C@@H]3C4)n2)cc1 | 257 µg/mL (≈ 560 µM) | 4.3 | 1.26 µM | 0.158 µM | 25.1 µM | 7.3
6 | CNCC(=O)Nc1ccc(-c2nc(CS(C)(=O)=O)cc(N3CCOC[C@@H]3C)n2)cc1 | 90 µg/mL (≈ 208 µM) | 2.6 | 12.6 µM | 0.501 µM | 25.1 µM | 7.7
7 | C[C@H]1COCCN1c1ccnc(-c2cccc(O)c2)n1 | 119 µg/mL (≈ 439 µM) | 3.3 | 1 µM | 3.98 µM | 1.58 µM | 5.7
8 | CS(=O)(=O)Cc1cc([C@@]23CCOC[C@@H]2C3)nc(-c2cccc(O)c2)n1 | 145 µg/mL (≈ 402 µM) | 3.7 | 3.98 µM | 5.01 µM | 7.94 µM | 5.9
9 | Oc1cccc(-c2nccc(C3CCOCC3)n2)c1 | 100 µg/mL (≈ 390 µM) | 3.3 | 7.94 µM | 20 µM | 15.8 µM | 4.5
10 | CC(C)(c1cc([C@]23CCOC[C@H]2C3)nc(-c2cccc(O)c2)n1)S(C)(=O)=O | 135 µg/mL (≈ 348 µM) | 4.8 | 10 µM | 1.26 µM | 15.8 µM | 5.5
11 | CCNC(=O)Nc1ccc(-c2nc(CS(C)(=O)=O)cc([C@]34CCOC[C@H]3C4)n2)cc1 | 96 µg/mL (≈ 223 µM) | 3.6 | 7.94 µM | 0.501 µM | > 31.6 µM | 7
12 | CCNC(=O)Nc1ccc(-c2nccc(C34CCOCC3C4)n2)cc1 (stereo not drawn) | 111 µg/mL (≈ 328 µM) | 4 | 5.01 µM | 3.16 µM | 12.6 µM | 5.8
13 | CC(C)(c1cc([C@@]23CCOC[C@@H]2C3)nc(-c2cccc(O)c2)n1)S(C)(=O)=O | 148 µg/mL (≈ 381 µM) | 4.8 | 7.94 µM | 5.01 µM | 10 µM | < 5.4
14 | CCNC(=O)Nc1ccc(-c2nc(C(C)(C)S(C)(=O)=O)cc([C@]34CCOC[C@H]3C4)n2)cc1 | 74 µg/mL (≈ 161 µM) | 4.7 | 25.1 µM | 0.0631 µM | > 31.6 µM | 6.9
15 | CCNC(=O)Nc1ccc(-c2nccc(N3CCOCC3)n2)cc1 | 109 µg/mL (≈ 333 µM) | 2.7 | 10 µM | 3.98 µM | 12.6 µM | 6.5
16 | CCNC(=O)Nc1ccc(-c2nc(CS(C)(=O)=O)cc([C@@]34CCOC[C@@H]3C4)n2)cc1 | 77 µg/mL (≈ 179 µM) | 3.6 | 25.1 µM | 1.58 µM | > 31.6 µM | 6.1

Row | Structure (SMILES) | solubility kinetic at 1 h [1] | logP [2] | IC50 [3] | IC50 [4] | IC50 [5] | pIC50 [6]
17 | C[C@H]1COCCN1c1cc(C(C)(C)S(C)(=O)=O)nc(-c2cccc(O)c2)n1 | 121 µg/mL (≈ 309 µM) | 4.4 | 3.16 µM | 1.26 µM | 3.16 µM | 5.7
18 | Oc1cccc(-c2nccc(C34CCOCC3C4)n2)c1 (stereo not drawn) | 102 µg/mL (≈ 380 µM) | 4.1 | 3.98 µM | 7.94 µM | 6.31 µM | 4.8
19 | Oc1cccc(-c2nccc(N3CCOCC3)n2)c1 | 107 µg/mL (≈ 416 µM) | 2.7 | 0.251 µM | 2 µM | 0.501 µM | 5.9
20 | CCNC(=O)Nc1ccc(-c2nc(C(C)(C)S(C)(=O)=O)cc([C@@]34CCOC[C@@H]3C4)n2)cc1 | 78 µg/mL (≈ 170 µM) | 4.7 | 15.8 µM | 0.158 µM | 25.1 µM | 6.6
21 | CCNC(=O)Nc1ccc(-c2nccc(C3=CCOCC3)n2)cc1 | 24 µg/mL (≈ 74 µM) | 3.6 | 15.8 µM | 3.98 µM | 20 µM | 6
22 | Oc1cccc(-c2nccc(C3=CCOCC3)n2)c1 | 113 µg/mL (≈ 444 µM) | 3.6 | 1.26 µM | 3.16 µM | 3.16 µM | 5.7
23 | Oc1cccc(-c2nccc([C@]34CCOC[C@H]3C4)n2)c1 | 141 µg/mL (≈ 525 µM) | 4 | 1.26 µM | 7.94 µM | 2.51 µM | 5.1
24 | Oc1cccc(-c2nccc([C@@]34CCOC[C@@H]3C4)n2)c1 | 123 µg/mL (≈ 458 µM) | 4 | 3.16 µM | 10 µM | 6.31 µM | < 3
25 | CC(C)(c1cc([C@@]23CCOC[C@@H]2C3)nc(-c2ccc(NC(=S)NCCO)cc2)n1)S(C)(=O)=O | 145 µg/mL (≈ 296 µM) | 3.9 | 25.1 µM | 0.0794 µM | 7.94 µM | 8.2
26 | CNCC(=O)Nc1ccc(-c2nc(CS(C)(=O)=O)cc([C@@]34CCOC[C@@H]3C4)n2)cc1 | 167 µg/mL (≈ 388 µM) | 3.1 | 15.8 µM | 1.26 µM | > 31.6 µM | 7.1
27 | CNCC(=O)Nc1ccc(-c2nc(CS(C)(=O)=O)cc([C@]34CCOC[C@H]3C4)n2)cc1 | 158 µg/mL (≈ 367 µM) | 3.1 | > 31.6 µM | 0.794 µM | > 31.6 µM | 7.4
28 | CCNC(=O)Nc1ccc(-c2nc(N3CCOC[C@@H]3C)cc(C(C)(C)S(C)(=O)=O)n2)cc1 | 130 µg/mL (≈ 282 µM) | 4.4 | 7.94 µM | 0.0501 µM | 7.94 µM | 7.3
29 | CS(=O)(=O)Cc1cc([C@]23CCOC[C@H]2C3)nc(-c2cccc(O)c2)n1 | 75 µg/mL (≈ 208 µM) | 3.7 | 15.8 µM | 3.16 µM | 20 µM | 5.8
30 | CS(=O)(=O)Cc1cc(C2=CCOCC2)nc(-c2cccc(O)c2)n1 | 27 µg/mL (≈ 77.9 µM) | 3.3 | 1.58 µM | 0.794 µM | 6.31 µM | 6.4
31 | CNCC(=O)Nc1ccc(-c2nc(C(C)(C)S(C)(=O)=O)cc([C@]34CCOC[C@H]3C4)n2)cc1 | 217 µg/mL (≈ 473 µM) | 4.3 | 12.6 µM | 0.1 µM | > 31.6 µM | 7.6
